Measured values as given in patent US20250215012A1, “IKZF2 DEGRADERS AND USES THEREOF” (REGENTS OF THE UNIVERSITY OF MICHIGAN, priority 2022, published 2025).

Molecular target: IKZF2 (Homo sapiens (Human), UniProt Q96SW2+Q9UKS7)
Assay: IKZF2 HiBiT Assay (Jurkat-IKZF2-HiBiT cell line)
Format: cell-based
Conditions: Jurkat-IKZF2-HiBiT cells, 24 hours; for DC50: read-out: HiBit assay degradation analysis DC50; for Dmax: read-out: HiBit assay degradation analysis Dmax
Procedure: Degradation of IKZF2 protein is determined by IKZF2 HiBiT assay using the Jurkat-IKZF2-HiBiT (Promega) cell line. Briefly, cells are seeded in culture medium. Compounds are serially diluted in culture medium, and certain volume of the diluted compounds is added to the appropriate well of the plate. After the addition of compounds, the cells are incubated. At the end of treatment, Nano-Glo HiBiT Lytic Detection Reagent (Promega) is added to each well, and then the plates are incubated at room temperature for a certain time period. The luminescent signal is measured using a CALRIOstar plate reader (BMG Labtech). The readings are normalized to the DMSO-treated cells and the IC50 is calculated by nonlinear regression (four parameters sigmoid fitted with variable slope, least squares fit, and no constraint) analysis using the GraphPad Prism 8 software.
Degradation of IKZF2 protein was determined by IKZF2 HiBiT assay using the Jurkat-IKZF2-HiBiT (Promega) cell line. […] Compounds were serially diluted in culture medium, and 20 μl of the diluted compounds were added to the appropriate wells of the plate. After the addition of compounds, the cells were incubated at 37° C. in an atmosphere of 5% CO2 for 24 hours. At the end of treatment, 40 ul of Nano-Glo HiBiT Lytic Detection Reagent (Promega) was added to each well, and then the plates were incubated at room temperature for 10-20 minutes. The luminescent signal was measured using a CALRIOstar plate reader (BMG Labtech). The readings were normalized to the DMSO-treated cells and the IC50 was calculated by nonlinear regression (four parameters sigmoid fitted with variable slope, least squares fit, and no constraint) analysis using the GraphPad Prism 8 software.

IKZF2, sequence (Q9UKS7 whole entry): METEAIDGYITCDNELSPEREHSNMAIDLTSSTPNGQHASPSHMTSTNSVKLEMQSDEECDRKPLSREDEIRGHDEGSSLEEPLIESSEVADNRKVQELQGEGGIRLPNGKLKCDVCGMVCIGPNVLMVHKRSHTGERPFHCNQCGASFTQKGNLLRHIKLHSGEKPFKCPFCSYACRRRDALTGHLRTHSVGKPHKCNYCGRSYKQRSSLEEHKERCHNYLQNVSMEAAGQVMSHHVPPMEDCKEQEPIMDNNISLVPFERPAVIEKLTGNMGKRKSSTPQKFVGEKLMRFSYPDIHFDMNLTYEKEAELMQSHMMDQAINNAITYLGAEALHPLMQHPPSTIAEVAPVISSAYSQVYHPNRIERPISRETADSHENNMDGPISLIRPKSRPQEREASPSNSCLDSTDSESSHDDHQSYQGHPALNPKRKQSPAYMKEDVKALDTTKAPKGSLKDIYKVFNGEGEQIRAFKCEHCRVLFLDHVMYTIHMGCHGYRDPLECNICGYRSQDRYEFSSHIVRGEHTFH
IKZF2, sequence (Q96SW2 whole entry): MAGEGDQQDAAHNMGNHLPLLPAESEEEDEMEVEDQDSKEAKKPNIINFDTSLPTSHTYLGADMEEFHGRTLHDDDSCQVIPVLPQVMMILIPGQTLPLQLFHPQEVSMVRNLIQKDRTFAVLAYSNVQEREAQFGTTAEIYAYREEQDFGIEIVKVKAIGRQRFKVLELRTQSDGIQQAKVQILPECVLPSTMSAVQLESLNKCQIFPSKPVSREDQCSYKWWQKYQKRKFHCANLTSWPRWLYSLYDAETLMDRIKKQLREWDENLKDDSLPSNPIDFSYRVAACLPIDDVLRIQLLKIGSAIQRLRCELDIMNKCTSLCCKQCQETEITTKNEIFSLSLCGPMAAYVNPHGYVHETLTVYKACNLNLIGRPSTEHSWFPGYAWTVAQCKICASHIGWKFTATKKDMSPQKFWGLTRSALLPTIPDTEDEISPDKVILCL
IKZF2, sequence (Q16531 whole entry partner): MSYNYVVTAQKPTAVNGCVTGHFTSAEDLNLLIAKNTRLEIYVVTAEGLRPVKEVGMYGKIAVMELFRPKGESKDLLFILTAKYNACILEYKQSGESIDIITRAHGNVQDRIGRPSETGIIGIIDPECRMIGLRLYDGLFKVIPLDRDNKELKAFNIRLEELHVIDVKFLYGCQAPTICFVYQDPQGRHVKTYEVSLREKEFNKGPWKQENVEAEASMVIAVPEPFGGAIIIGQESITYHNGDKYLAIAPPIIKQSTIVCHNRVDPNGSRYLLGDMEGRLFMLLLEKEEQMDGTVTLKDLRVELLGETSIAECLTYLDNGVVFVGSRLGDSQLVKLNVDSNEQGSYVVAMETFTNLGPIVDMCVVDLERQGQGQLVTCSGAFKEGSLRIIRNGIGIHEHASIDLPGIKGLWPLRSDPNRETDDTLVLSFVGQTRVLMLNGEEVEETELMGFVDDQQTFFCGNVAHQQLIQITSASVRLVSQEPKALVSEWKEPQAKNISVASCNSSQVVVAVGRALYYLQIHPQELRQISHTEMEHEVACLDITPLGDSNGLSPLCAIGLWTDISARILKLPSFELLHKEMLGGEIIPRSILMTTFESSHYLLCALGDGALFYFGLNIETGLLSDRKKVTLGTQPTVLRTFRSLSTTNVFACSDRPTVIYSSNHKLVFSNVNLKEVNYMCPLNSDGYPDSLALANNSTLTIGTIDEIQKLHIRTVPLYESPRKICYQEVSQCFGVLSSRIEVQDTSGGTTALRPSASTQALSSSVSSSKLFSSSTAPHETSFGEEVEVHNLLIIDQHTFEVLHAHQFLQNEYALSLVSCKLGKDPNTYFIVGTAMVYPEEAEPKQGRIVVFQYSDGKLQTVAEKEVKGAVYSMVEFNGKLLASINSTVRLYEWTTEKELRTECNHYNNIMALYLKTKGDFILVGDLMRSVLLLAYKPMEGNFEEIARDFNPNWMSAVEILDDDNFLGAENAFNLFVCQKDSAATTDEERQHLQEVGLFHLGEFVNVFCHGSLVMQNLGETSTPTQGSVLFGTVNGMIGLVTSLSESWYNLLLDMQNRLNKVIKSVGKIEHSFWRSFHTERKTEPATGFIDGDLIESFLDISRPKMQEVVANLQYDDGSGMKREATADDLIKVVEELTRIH

Compound: O=C1CCC(N2Cc3c(ccc4c3OCC43CCN(Cc4ccc5ncsc5c4)CC3)C2=O)C(=O)N1 (stereo not drawn) [Compound A62, 3-(1′-(benzo[d]thiazol-6-ylmethyl)-6-oxo-6,8-dihydro-2H,7H-spiro[furo[2,3-e]isoindole-3,4′-piperidin]-7-yl)piperidine-2,6-dione]
- DC50: 200 to 500 nM
- Dmax: 40 to 60%

Compound: O=C1CCC(N2Cc3c(ccc4c3OCC43CCN(Cc4ccc5cccnc5c4)CC3)C2=O)C(=O)N1 (stereo not drawn) [Compound A64, 3-(6-oxo-1′-(quinolin-7-ylmethyl)-6,8-dihydro-2H,7H-spiro[furo[2,3-e]isoindole-3,4′-piperidin]-7-yl)piperidine-2,6-dione]
- DC50: 50 to 200 nM
- Dmax: 60 to 80%

Compound: O=C1CCC(N2Cc3c(ccc4c3OCC43CCN(Cc4ccc5cnccc5c4)CC3)C2=O)C(=O)N1 (stereo not drawn) [Compound A65, 3-(1′-(isoquinolin-6-ylmethyl)-6-oxo-6,8-dihydro-2H,7H-spiro[furo[2,3-e]isoindole-3,4′-piperidin]-7-yl)piperidine-2,6-dione]
- DC50: > 500 nM
- Dmax: 40 to 60%

Compound: O=C1CCC(N2Cc3c(ccc4c3OCC43CCN(Cc4ccc5cc[nH]c5n4)CC3)C2=O)C(=O)N1 (stereo not drawn) [Compound A66, 3-(1′-((1H-pyrrolo[2,3-b]pyridin-6-yl)methyl)-6-oxo-6,8-dihydro-2H,7H-spiro[furo[2,3-e]isoindole-3,4′-piperidin]-7-yl)piperidine-2,6-dione]
- DC50: > 500 nM
- Dmax: 40 to 60%

Compound: Cn1cc2c(CN3CCC4(CC3)COc3c4ccc4c3CN(C3CCC(=O)NC3=O)C4=O)cccc2n1 (stereo not drawn) [Compound A67, 3-(1′-((2-methyl-2H-indazol-4-yl)methyl)-6-oxo-6,8-dihydro-2H,7H-spiro[furo[2,3-e]isoindole-3,4′-piperidin]-7-yl)piperidine-2,6-dione]
- DC50: 50 to 200 nM
- Dmax: 60 to 80%

Compound: Cn1cc2cc(CN3CCC4(CC3)COc3c4ccc4c3CN(C3CCC(=O)NC3=O)C4=O)ccc2n1 (stereo not drawn) [Compound A68, 3-(1′-((2-methyl-2H-indazol-5-yl)methyl)-6-oxo-6,8-dihydro-2H,7H-spiro[furo[2,3-e]isoindole-3,4′-piperidin]-7-yl)piperidine-2,6-dione]
- DC50: > 500 nM
- Dmax: 40 to 60%

Compound: O=C1CCC(N2Cc3c(ccc4c3OCC43CCN(Cc4ccc5[nH]cnc5c4)CC3)C2=O)C(=O)N1 (stereo not drawn) [Compound A70, 3-(1′-((1H-benzo[d]imidazol-5-yl)methyl)-6-oxo-6,8-dihydro-2H,7H-spiro[furo[2,3-e]isoindole-3,4′-piperidin]-7-yl)piperidine-2,6-dione]
- DC50: 200 to 500 nM
- Dmax: 60 to 80%

Compound: O=C1CCC(N2Cc3c(ccc4c3OCC43CCN(Cc4cccc5[nH]cnc45)CC3)C2=O)C(=O)N1 (stereo not drawn) [Compound A71, 3-(1′-((1H-benzo[d]imidazol-4-yl)methyl)-6-oxo-6,8-dihydro-2H,7H-spiro[furo[2,3-e]isoindole-3,4′-piperidin]-7-yl)piperidine-2,6-dione]
- DC50: > 500 nM
- Dmax: 40 to 60%

Compound: Cn1cnc2ccc(CN3CCC4(CC3)COc3c4ccc4c3CN(C3CCC(=O)NC3=O)C4=O)cc21 (stereo not drawn) [Compound A72, 3-(1′-((1-methyl-1H-benzo[d]imidazol-6-yl)methyl)-6-oxo-6,8-dihydro-2H,7H-spiro[furo[2,3-e]isoindole-3,4′-piperidin]-7-yl)piperidine-2,6-dione]
- DC50: > 500 nM
- Dmax: 40 to 60%

Compound: O=C1CCC(N2Cc3c(ccc4c3OCC43CCN(Cc4ccnc5[nH]ccc45)CC3)C2=O)C(=O)N1 (stereo not drawn) [Compound A73, 3-(1′-((1H-pyrrolo[2,3-b]pyridin-4-yl)methyl)-6-oxo-6,8-dihydro-2H,7H-spiro[furo[2,3-e]isoindole-3,4′-piperidin]-7-yl)piperidine-2,6-dione]
- DC50: > 500 nM
- Dmax: 40 to 60%

Compound: Cn1ccc2cccc(CN3CCC4(CC3)COc3c4ccc4c3CN(C3CCC(=O)NC3=O)C4=O)c21 (stereo not drawn) [Compound A74, 3-(1′-((1-methyl-1H-indol-7-yl)methyl)-6-oxo-6,8-dihydro-2H,7H-spiro[furo[2,3-e]isoindole-3,4′-piperidin]-7-yl)piperidine-2,6-dione]
- DC50: 50 to 200 nM
- Dmax: 60 to 80%

Compound: Cn1cc2cccc(CN3CCC4(CC3)COc3c4ccc4c3CN(C3CCC(=O)NC3=O)C4=O)c2n1 (stereo not drawn) [Compound A75, 3-(1′-((2-methyl-2H-indazol-7-yl)methyl)-6-oxo-6,8-dihydro-2H,7H-spiro[furo[2,3-e]isoindole-3,4′-piperidin]-7-yl)piperidine-2,6-dione]
- DC50: 50 to 200 nM
- Dmax: 60 to 80%

Compound: O=C1CCC(N2Cc3c(ccc4c3OCC43CCN(Cc4cccc5ccnn45)CC3)C2=O)C(=O)N1 (stereo not drawn) [Compound A76, 3-(6-oxo-1′-(pyrazolo[1,5-]pyridin-7-ylmethyl)-6,8-dihydro-2H,7H-spiro[furo[2,3-e]isoindole-3,4′-piperidin]-7-yl)piperidine-2,6-dione]
- DC50: > 500 nM
- Dmax: < 40%

Compound: O=C1CCC(N2Cc3c(ccc4c3OCC43CCN(Cc4cccn5ccnc45)CC3)C2=O)C(=O)N1 (stereo not drawn) [Compound A77, 3-(1′-(imidazo[1,2-a]pyridin-8-ylmethyl)-6-oxo-6,8-dihydro-2H,7H-spiro[furo[2,3-e]isoindole-3,4′-piperidin]-7-yl)piperidine-2,6-dione]
- DC50: > 500 nM
- Dmax: 40 to 60%

Compound: O=C1CCC(N2Cc3c(ccc4c3OCC43CCN(Cc4ccn5ccnc5c4)CC3)C2=O)C(=O)N1 (stereo not drawn) [Compound A78]
- DC50: 200 to 500 nM
- Dmax: 40 to 60%

Compound: O=C1CCC(N2Cc3c(ccc4c3OCC43CCN(Cc4ccc5nccn5c4)CC3)C2=O)C(=O)N1 (stereo not drawn) [Compound A79]
- DC50: > 500 nM
- Dmax: < 40%

Compound: O=C1CCC(N2Cc3c(ccc4c3OCC43CCN(Cc4ccn5nccc5c4)CC3)C2=O)C(=O)N1 (stereo not drawn) [Compound A80, 3-(6-oxo-1′-(pyrazolo[1,5-a]pyridin-5-ylmethyl)-6,8-dihydro-2H,7H-spiro[furo[2,3-e]isoindole-3,4′-piperidin]-7-yl)piperidine-2,6-dione]
- DC50: > 500 nM
- Dmax: < 40%

Compound: O=C1CCC(N2Cc3c(ccc4c3OCC43CCN(Cc4cnc(-c5ccccc5)s4)CC3)C2=O)C(=O)N1 (stereo not drawn) [Compound A81, 3-(6-oxo-1′-((2-phenylthiazol-5-yl)methyl)-6,8-dihydro-2H,7H-spiro[furo[2,3-e]isoindole-3,4′-piperidin]-7-yl)piperidine-2,6-dione]
- DC50: > 500 nM
- Dmax: < 40%

Compound: O=C1CCC(N2Cc3c(ccc4c3OCC43CCN(Cc4csc(-c5ccccc5)n4)CC3)C2=O)C(=O)N1 (stereo not drawn) [Compound A82, 3-(6-oxo-1′-((2-phenylthiazol-4-yl)methyl)-6,8-dihydro-2H,7H-spiro[furo[2,3-e]isoindole-3,4′-piperidin]-7-yl)piperidine-2,6-dione]
- DC50: > 500 nM
- Dmax: < 40%

Compound: O=C1CCC(N2Cc3c(ccc4c3OCC43CCN(Cc4coc(-c5ccccc5)n4)CC3)C2=O)C(=O)N1 (stereo not drawn) [Compound A83, 3-(6-oxo-1′-((2-phenyloxazol-4-yl)methyl)-6,8-dihydro-2H,7H-spiro[furo[2,3-e]isoindole-3,4′-piperidin]-7-yl)piperidine-2,6-dione]
- DC50: > 500 nM
- Dmax: < 40%

Compound: O=C1CCC(N2Cc3c(ccc4c3OCC43CCN(Cc4c[nH]c(-c5ccccc5)n4)CC3)C2=O)C(=O)N1 (stereo not drawn) [Compound A84, 3-(6-oxo-1′-((2-phenyl-1H-imidazol-4-yl)methyl)-6,8-dihydro-2H,7H-spiro[furo[2,3-e]isoindole-3,4′-piperidin]-7-yl)piperidine-2,6-dione]
- DC50: > 500 nM
- Dmax: 40 to 60%
